In ChEMBL document CHEMBL1828525, “Metronidazole acid acyl sulfonamide: a novel class of anticancer agents and potential EGFR tyrosine kinase inhibitors” (Bioorg Med Chem, 2011):
In brackets after ≈: the same amount, converted by molar mass.

Experiments:
[1] = biological target: Receptor tyrosine-protein kinase erbB-2 (Homo sapiens, UniProt P04626);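 note: recombinant His6-tagged human HER-2, autophosphorylation inhibition read by DELFIA time-resolved fluorescence after 10 min preincubation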
Description: Inhibition of human recombinant (His)6-tagged HER-2 autophosphorylation pre-incubated for 10 mins by DELFIA/Time-resolved fluorimetry

[2] = biological target: Epidermal growth factor receptor (Homo sapiens, UniProt P00533);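 note: recombinant His6-tagged EGFR autophosphorylation, read by DELFIA time-resolved fluorimetry after a 10 min preincubation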
Chain of Epidermal growth factor receptor (P00533 whole entry): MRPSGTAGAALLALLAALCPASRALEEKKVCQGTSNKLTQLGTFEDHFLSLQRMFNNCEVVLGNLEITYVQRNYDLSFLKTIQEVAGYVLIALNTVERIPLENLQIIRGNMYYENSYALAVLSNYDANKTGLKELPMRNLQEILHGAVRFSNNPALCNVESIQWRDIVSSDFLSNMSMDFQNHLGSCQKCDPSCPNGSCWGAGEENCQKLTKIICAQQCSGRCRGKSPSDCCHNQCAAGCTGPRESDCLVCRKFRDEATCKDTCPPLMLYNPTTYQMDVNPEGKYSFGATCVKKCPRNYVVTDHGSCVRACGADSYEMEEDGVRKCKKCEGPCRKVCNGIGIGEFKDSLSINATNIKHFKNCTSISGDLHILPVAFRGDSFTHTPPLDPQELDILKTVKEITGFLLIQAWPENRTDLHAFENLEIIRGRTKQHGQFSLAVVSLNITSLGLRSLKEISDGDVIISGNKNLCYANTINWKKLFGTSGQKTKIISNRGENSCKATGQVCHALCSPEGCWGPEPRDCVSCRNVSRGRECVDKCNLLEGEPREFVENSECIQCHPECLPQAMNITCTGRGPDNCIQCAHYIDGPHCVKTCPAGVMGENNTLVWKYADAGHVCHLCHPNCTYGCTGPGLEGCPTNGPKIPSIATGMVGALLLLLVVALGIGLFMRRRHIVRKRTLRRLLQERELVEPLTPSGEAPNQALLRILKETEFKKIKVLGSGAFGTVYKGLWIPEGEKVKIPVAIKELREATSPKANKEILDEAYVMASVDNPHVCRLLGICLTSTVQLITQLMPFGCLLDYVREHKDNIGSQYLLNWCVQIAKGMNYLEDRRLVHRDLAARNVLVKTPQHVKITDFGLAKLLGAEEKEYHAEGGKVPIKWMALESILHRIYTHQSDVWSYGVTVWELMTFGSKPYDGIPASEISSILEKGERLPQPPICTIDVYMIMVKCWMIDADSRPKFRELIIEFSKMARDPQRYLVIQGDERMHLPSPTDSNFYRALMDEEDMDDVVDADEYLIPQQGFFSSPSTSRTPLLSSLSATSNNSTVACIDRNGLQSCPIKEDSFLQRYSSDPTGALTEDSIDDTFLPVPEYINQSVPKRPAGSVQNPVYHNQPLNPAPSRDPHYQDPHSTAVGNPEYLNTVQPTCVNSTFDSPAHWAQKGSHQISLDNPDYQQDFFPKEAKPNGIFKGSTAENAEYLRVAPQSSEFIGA
Description: Inhibition of human recombinant (His)6-tagged EGFR autophosphorylation pre-incubated for 10 mins by DELFIA/Time-resolved fluorimetry

B16-F10 = assay: Antiproliferative activity against mouse B16-F10 cells after 48 hrs by MTT assay; assay type: functional, cell-based; conditions: B16-F10, 48 h
A549 = assay: Antiproliferative activity against human A549 cells after 48 hrs by MTT assay; assay type: functional, cell-based; conditions: A549, 48 h

Chain of Receptor tyrosine-protein kinase erbB-2 (P04626 whole entry): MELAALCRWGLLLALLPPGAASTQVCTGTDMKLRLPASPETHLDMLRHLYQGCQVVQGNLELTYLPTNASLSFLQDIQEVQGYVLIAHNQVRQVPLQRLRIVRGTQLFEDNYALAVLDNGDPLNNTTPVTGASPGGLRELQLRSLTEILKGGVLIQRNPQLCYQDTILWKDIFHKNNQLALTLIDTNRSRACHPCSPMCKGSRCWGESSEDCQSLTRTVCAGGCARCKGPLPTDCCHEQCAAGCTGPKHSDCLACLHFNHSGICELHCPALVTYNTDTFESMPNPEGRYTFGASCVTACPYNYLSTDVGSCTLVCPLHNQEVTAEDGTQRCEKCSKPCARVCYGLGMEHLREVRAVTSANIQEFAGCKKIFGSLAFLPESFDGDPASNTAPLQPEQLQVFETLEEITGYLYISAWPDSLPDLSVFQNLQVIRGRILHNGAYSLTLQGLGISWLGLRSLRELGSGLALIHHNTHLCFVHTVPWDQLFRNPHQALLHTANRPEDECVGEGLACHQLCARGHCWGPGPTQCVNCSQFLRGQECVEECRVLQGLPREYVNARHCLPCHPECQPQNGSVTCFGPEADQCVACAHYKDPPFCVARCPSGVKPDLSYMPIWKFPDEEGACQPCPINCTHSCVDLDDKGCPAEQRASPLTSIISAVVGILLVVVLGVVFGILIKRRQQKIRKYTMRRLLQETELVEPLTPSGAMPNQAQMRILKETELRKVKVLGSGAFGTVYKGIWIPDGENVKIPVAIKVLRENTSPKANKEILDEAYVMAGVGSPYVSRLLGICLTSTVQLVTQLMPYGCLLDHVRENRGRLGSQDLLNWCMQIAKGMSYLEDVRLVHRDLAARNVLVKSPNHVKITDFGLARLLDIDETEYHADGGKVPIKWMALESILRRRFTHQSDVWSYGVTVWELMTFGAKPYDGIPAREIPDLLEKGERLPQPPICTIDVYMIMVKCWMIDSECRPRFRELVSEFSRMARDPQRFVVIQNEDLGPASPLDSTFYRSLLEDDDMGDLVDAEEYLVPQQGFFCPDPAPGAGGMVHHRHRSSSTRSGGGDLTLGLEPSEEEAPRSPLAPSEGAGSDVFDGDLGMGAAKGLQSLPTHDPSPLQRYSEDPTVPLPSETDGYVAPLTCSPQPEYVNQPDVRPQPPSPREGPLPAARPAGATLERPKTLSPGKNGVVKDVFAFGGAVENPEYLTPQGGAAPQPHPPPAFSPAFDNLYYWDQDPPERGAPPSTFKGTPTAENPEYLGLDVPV

IC50 [1] [µM]	IC50 [2] [µM]	IC50 (B16-F10) [µg/mL]	IC50 (A549) [µg/mL]	SMILES
4.21	–	–	–	Cc1ncc([N+](=O)[O-])n1CC(=O)NS(=O)(=O)c1ccccc1
4.76	3.43	3.55 (≈ 10.5 µM)	4.38 (≈ 12.9 µM)	Cc1ccc(S(=O)(=O)NC(=O)Cn2c([N+](=O)[O-])cnc2C)cc1
1.53	0.39	0.35 (≈ 1.02 µM)	1.26 (≈ 3.68 µM)	Cc1ncc([N+](=O)[O-])n1CC(=O)NS(=O)(=O)c1ccc(F)cc1
3.41	1.51	0.92 (≈ 2.56 µM)	2.47 (≈ 6.88 µM)	Cc1ncc([N+](=O)[O-])n1CC(=O)NS(=O)(=O)c1ccc(Cl)cc1
3.59	2.17	2.37 (≈ 5.88 µM)	3.03 (≈ 7.51 µM)	Cc1ncc([N+](=O)[O-])n1CC(=O)NS(=O)(=O)c1ccc(Br)cc1
8.41	6.74	9.07 (≈ 30.9 µM)	10.1 (≈ 34.5 µM)	O=C(Cc1ccc(F)cc1)NS(=O)(=O)c1ccccc1
10.5	8.28	9.94 (≈ 32.3 µM)	12 (≈ 39.2 µM)	Cc1ccc(S(=O)(=O)NC(=O)Cc2ccc(F)cc2)cc1
7.02	5.17	4.23 (≈ 13.6 µM)	5.64 (≈ 18.1 µM)	O=C(Cc1ccc(F)cc1)NS(=O)(=O)c1ccc(F)cc1
7.56	5.93	6.36 (≈ 19.4 µM)	6.28 (≈ 19.2 µM)	O=C(Cc1ccc(F)cc1)NS(=O)(=O)c1ccc(Cl)cc1
8.18	6.41	8.2 (≈ 22 µM)	7.94 (≈ 21.3 µM)	O=C(Cc1ccc(F)cc1)NS(=O)(=O)c1ccc(Br)cc1
13.1	11.9	–	–	O=C(Cc1ccc(Cl)cc1)NS(=O)(=O)c1ccccc1
15.6	13.7	–	–	Cc1ccc(S(=O)(=O)NC(=O)Cc2ccc(Cl)cc2)cc1
11.1	9.59	–	–	O=C(Cc1ccc(Cl)cc1)NS(=O)(=O)c1ccc(F)cc1
13.3	10.3	–	–	O=C(Cc1ccc(Cl)cc1)NS(=O)(=O)c1ccc(Cl)cc1
13.6	11.3	–	–	O=C(Cc1ccc(Cl)cc1)NS(=O)(=O)c1ccc(Br)cc1
19	17.8	–	–	O=C(Cc1ccc(Br)cc1)NS(=O)(=O)c1ccccc1
20.3	18.4	–	–	Cc1ccc(S(=O)(=O)NC(=O)Cc2ccc(Br)cc2)cc1
16.3	14.5	–	–	O=C(Cc1ccc(Br)cc1)NS(=O)(=O)c1ccc(F)cc1
18.9	15.9	–	–	O=C(Cc1ccc(Br)cc1)NS(=O)(=O)c1ccc(Cl)cc1
19.8	–	–	–	O=C(Cc1ccc(Br)cc1)NS(=O)(=O)c1ccc(Br)cc1
29.1	26.2	–	–	COc1ccc(CC(=O)NS(=O)(=O)c2ccccc2)cc1
> 50	38.5	–	–	COc1ccc(CC(=O)NS(=O)(=O)c2ccc(C)cc2)cc1
23.4	21.8	–	–	COc1ccc(CC(=O)NS(=O)(=O)c2ccc(F)cc2)cc1
37.9	32.9	–	–	COc1ccc(CC(=O)NS(=O)(=O)c2ccc(Cl)cc2)cc1
25	24.2	–	–	COc1ccc(CC(=O)NS(=O)(=O)c2ccc(Br)cc2)cc1
26.3	24.7	–	–	O=C(Cc1cccc(Br)c1)NS(=O)(=O)c1ccccc1
27.9	26.2	–	–	Cc1ccc(S(=O)(=O)NC(=O)Cc2cccc(Br)c2)cc1
20.4	18.7	–	–	O=C(Cc1cccc(Br)c1)NS(=O)(=O)c1ccc(F)cc1
23.5	21.3	–	–	O=C(Cc1cccc(Br)c1)NS(=O)(=O)c1ccc(Cl)cc1
27.4	24.3	–	–	O=C(Cc1cccc(Br)c1)NS(=O)(=O)c1ccc(Br)cc1
